Experimental data as given in PMC7339578, “Multiple circulating alkaloids and saponins from intravenous Kang-Ai injection inhibit human cytochrome P450 and UDP-glucuronosyltransferase isozymes: potential drug–drug interactions” (Chinese Medicine, 2020).

How the values were obtained:
[1] = Plasma pharmacokinetics in rats after a 30-min intravenous infusion of Kang-Ai injection; type: in vivo, Sprague–Dawley rats; details: rat plasma, 30-min iv infusion of Kang-Ai injection 6 mL/kg
Outline: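 Fasted male Sprague–Dawley rats (250 ± 20 g) got a single 30-min tail-vein infusion of Kang-Ai injection at 6 mL/kg. Jugular blood was sampled from 5 min to 12 h for plasma. Parameters came from non-compartmental analysis (trapezoidal AUC), n = 3.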

[2] = Urinary (renal) excretion in rats after a 30-min infusion of Kang-Ai injection; type: in vivo, Sprague–Dawley rats; details: rat urine 0–12 h; Kang-Ai injection 6 mL/kg iv
Outline: (§1)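 Urine collected in metabolic cages at 0–4, 4–8, 8–12 h and bile at 0–3, 3–6, 6–9, 9–12 h after infusion start, weighed and frozen at −80 °C. Non-compartmental analysis; CLR and CLB as cumulative urinary or biliary amount divided by plasma AUC0-∞, fe-U and fe-B as cumulative amount/dose; mean ± SD (n = 3).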

[3] = Biliary (hepatobiliary) excretion in rats after a 30-min infusion of Kang-Ai injection; type: in vivo, Sprague–Dawley rats; details: rat bile 0–12 h; Kang-Ai injection 6 mL/kg iv
Outline: as §1

[4] = Protein binding assay (equilibrium dialysis); type: in vitro ADME, rat; details: rat plasma; equilibrium dialysis 24 h, 37 °C; 2 μmol/L alkaloids, 4 μmol/L saponins
Procedure: Binding of circulating alkaloids and saponins to rat plasma was measured by equilibrium dialysis using Spectra/Por 2 dialysis membranes (molecular weight cutoff, 12–14 kDa; Rancho Dominguez, CA, USA) as described. After equilibrating for 24 h at 55 rpm and 37 °C, the dialysate and the plasma were sampled for analysis. […] The concentrations of tested matrine, oxysophocarpine and oxymatrine were 2 μmol/L, while those of astragaloside IV, III, and ginsenosides Rh1, Rg2, Rg1, Rf, Re, Rd, Rc, Rb1, Rb2, notoginsenosides R1, R2, were 4 μmol/L. The unbound fraction (fu-plasma) in rat plasma was calculated as follow: fu-plasma = Cd/Cp × 100%, where the Cd and Cp values were the concentrations of each analyte in the dialysate sample and in the post-dialysis plasma sample, respectively.

[5] = Stability tests of analytes in rat plasma QC samples; type: in vitro ADME; details: rat plasma
Procedure: […] The dilution integrity was investigated by analyzing six replicate samples with each analyte, and each analyte were diluted 10-fold with blank rat matrix. Furthermore, the diluted samples were analyzed using freshly prepared calibration curve to calculate RE and RSD, which should be no more than ± 15% as criterion.

UGT2B7 = test system: UGT2B7; set-up: method as in PMID 27916843; details: read-out: Ki towards UGT2B7; cited from earlier work
UGT1A8 = details: cited from earlier work

Compound: CC(C)=CCC[C@](C)(O[C@@H]1O[C@H](CO)[C@@H](O)[C@H](O)[C@H]1O)[C@H]1CC[C@]2(C)[C@@H]1[C@H](O)C[C@@H]1[C@@]3(C)CC[C@H](O)C(C)(C)[C@@H]3[C@@H](O[C@@H]3O[C@H](CO)[C@@H](O)[C@H](O)[C@H]3O[C@@H]3OC[C@@H](O)[C@H](O)[C@H]3O)C[C@]12C [Compound C8, Notoginsenoside R1]
- t1/2 [1]: 45 ± 9.6 min
- Cmax ([1]; read-out: Cmax): 121 ± 21.1 nM
- fe-U,0–12h (fraction of dose excreted into urine) [2]: 72.12 ± 13.01%
- fe-B,0–12h (fraction of dose excreted into bile) [3]: 12.00 ± 1.57%
- fu-plasma (unbound fraction) [4]: 90.36 ± 4.22%
- At -80 °C for 48 h, Mean±SD ([5]; nominal conc. 20 nM): 20.74 ± 0.96 nM
- At -80 °C for 48 h, RE ([5]; nominal conc. 20 nM): 8.27%
- Extracted samples at 8 °C for 18 h, Mean±SD ([5]; nominal conc. 20 nM): 19.67 ± 2.39 nM
- Extracted samples at 8 °C for 18 h, RE ([5]; nominal conc. 20 nM): -11.85%
- Short-term stability at room temperature for 6 h, Mean±SD ([5]; nominal conc. 20 nM): 17.74 ± 0.16 nM
- Short-term stability at room temperature for 6 h, RE ([5]; nominal conc. 20 nM): -12.08%
- Three freeze-thaw cycles (-80 °C ↔ 23 °C), Mean±SD ([5]; nominal conc. 20 nM): 21.51 ± 1.68 nM
- Three freeze-thaw cycles (-80 °C ↔ 23 °C), RE ([5]; nominal conc. 20 nM): 12.79%
- At -80 °C for 48 h, Mean±SD ([5]; nominal conc. 100 nM): 98.21 ± 9.98 nM
- At -80 °C for 48 h, RE ([5]; nominal conc. 100 nM): 9.58%
- Extracted samples at 8 °C for 18 h, Mean±SD ([5]; nominal conc. 100 nM): 97.66 ± 12.82 nM
- Extracted samples at 8 °C for 18 h, RE ([5]; nominal conc. 100 nM): 12.46%
- Short-term stability at room temperature for 6 h, Mean±SD ([5]; nominal conc. 100 nM): 92.24 ± 4.21 nM
- Short-term stability at room temperature for 6 h, RE ([5]; nominal conc. 100 nM): -10.97%
- Three freeze-thaw cycles (-80 °C ↔ 23 °C), Mean±SD ([5]; nominal conc. 100 nM): 97.29 ± 6.47 nM
- Three freeze-thaw cycles (-80 °C ↔ 23 °C), RE ([5]; nominal conc. 100 nM): -10.11%
- At -80 °C for 48 h, Mean±SD ([5]; nominal conc. 400 nM): 413.01 ± 31.69 nM
- At -80 °C for 48 h, RE ([5]; nominal conc. 400 nM): 11.76%
- Extracted samples at 8 °C for 18 h, Mean±SD ([5]; nominal conc. 400 nM): 402.54 ± 33.33 nM
- Extracted samples at 8 °C for 18 h, RE ([5]; nominal conc. 400 nM): 9.82%
- Short-term stability at room temperature for 6 h, Mean±SD ([5]; nominal conc. 400 nM): 357.29 ± 9.94 nM
- Short-term stability at room temperature for 6 h, RE ([5]; nominal conc. 400 nM): -13.09%
- Three freeze-thaw cycles (-80 °C ↔ 23 °C), Mean±SD ([5]; nominal conc. 400 nM): 379.04 ± 38.85 nM
- Three freeze-thaw cycles (-80 °C ↔ 23 °C), RE ([5]; nominal conc. 400 nM): -14.53%

Compound: CC(C)(O)[C@@H]1CC[C@](C)([C@H]2[C@@H](O)C[C@@]3(C)[C@@H]4C[C@H](O)[C@H]5C(C)(C)[C@@H](O)CC[C@@]56C[C@@]46CC[C@]23C)O1 [cycloastragenol]
- Ki (UGT2B7): 21 µM
- Ki (UGT1A8): 0.034 µM
